From patent US4520026A, “Indolizine derivatives and use as cardiovascular agents” (S. A. Labaz N.V., priority 1982, dated 1985) come the findings set out here.

Where only a bound is given, the exact number is not on record here.

A short description of series [1]: Acute toxicity by intravenous route to rats. It is filed as in vivo. The following applies: rat, in vivo, oxalate acid form except those marked (hydrochloride). The method, then: (§1) Acute toxicity tests were carried out on rats and mice. The following results were registered in comparison with butoprozine. The compounds of the invention were used in oxalate acid form except those marked (x) which were tested in hydrochloride form.

The next series concerns rats. Briefly: Acute toxicity by intravenous route to rats. Type of series: in vivo. The following applies: oxalate acid form except those marked (hydrochloride). As for the experimental part: as §1
Series [2] relates to epinephrine-increased blood-pressure (anti-α effect). Description: Antiadrenergic effect: anti-α effect (reduction of epinephrine-increased blood-pressure). Note: key: +: for a <50%-reduction of the increase in pressure or cardiac frequency; ++: for a ≥50%-reduction of the increase in pressure or cardiac frequency; +++: for a subtotal reduction of the increase in pressure or cardiac frequency. It is filed as in vivo. The following applies: dog. The gist of the method:
(§2)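 Pentobarbital-anaesthetized, atropinized dogs given an epinephrine dose (5–10 μg/kg) raising arterial pressure about 100 mm Hg, then test compound i.v. Reduction of the pressor response (anti-α) and of the ~70-beat tachycardia (anti-β) scored: + <50%, ++ ≥50%, +++ subtotal.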

Series [3] deals with epinephrine-accelerated heart rate (anti-β effect). Briefly: Antiadrenergic effect: anti-β effect (reduction of epinephrine-accelerated heart rate). It is filed as in vivo. The following applies: dog; for inhibition in vivo at 5 mg/kg: dose 5 mg/kg i.v. The gist of the method:
as §2

In series [4] the test system is blood-flow to the myocardium. Description: Effect on blood-flow to the myocardium, anaesthetized dogs, intravenous. Type of series: in vivo, dog. The following applies: anaesthetized dog. The method, then: It was undertaken on anaesthetized dogs which received the substance under study by intravenous route. The intensity of the maximum effect on blood-flow to the myocardium was expressed in percentage of the corresponding value before injection. The time required for the maximum effect to decrease by 50% represented the duration of the effect. This time was measured in minutes.

The test system of the next series is ventricular fibrillation. Description: Anti-arrhythmic properties, LAWSON test (chloroform-provoked arrhythmia), intragastric. Conditions: Mus musculus, po, mice, read-out: AD50 (dose protecting 50% of the animals against ventricular fibrillation). Type of series: in vivo. The method, then:
The arrhythmia was provoked by making the animals inhale chloroform to total asphyxia and by later observing the ventricular rhythm. The dose of compound protecting 50% of the animals against ventricular fibrillation i.e. the AD50 was then recorded.

Series [5] can be described thus: Acute toxicity by intravenous route to mice. Conditions: mouse, in vivo, oxalate acid form except those marked (hydrochloride). As for the experimental part: as §1
Where [6] appears, read: Canis lupus familiaris, iv, dose 10 mg/kg i.v., read-out: Max. increase (blood-flow to the myocardium).
Setting [7] is: Canis lupus familiaris, iv, dose 10 mg/kg i.v.
Setting [8] is: Canis lupus familiaris, iv, dose 5 mg/kg i.v., read-out: Max. increase (blood-flow to the myocardium).

What is called LD50 is the dose expected to kill half of the subjects tested. `CCCCN(CCCC)CCCOc1ccc(C(=O)c2c(-c3ccccc3)c(Br)c3ccccn23)cc1Cl.Cl` [(*)Br/Cl/H/drawing 49/n-C4H9/3, 1-Bromo-2-phenyl-3-[4-(3-di-n-butylaminopropyl)-oxy-3-chloro-benzoyl]-indolizine hydrochloride] yielded an LD50 in series [1] of more than 100 mg/kg.

In turn, `CCCCN(CCCC)CCCOc1ccc(C(=O)c2c(CC)cc3ccccn23)cc1Cl.Cl` [(*)H/Cl/H/C2H5/n-C4H9/3, 2-Ethyl-3-[4-(3-di-n-butylaminopropyl)-oxy-3-chloro-benzoyl]-indolizine hydrochloride] gave an LD50 in series [1] of 65 mg/kg.

Turning to `CCCCc1cc2ccccn2c1C(=O)c1ccc(OCCCN(CCCC)CCCC)c(Cl)c1.Cl` [(*)H/Cl/H/n-C4H9/n-C4H9/3, 2-n-butyl-3-[4-(3-di-n-butylaminopropyl)-oxy-3-chloro-benzoyl]-indolizine hydrochloride], in the series with rats, the LD0 is on record as more than 50 mg/kg. The LD50 in series [1] is more than 50 mg/kg.

Turning to `CCCCN(CCCC)CCCOc1ccc(C(=O)c2c(CC)c(Br)c3ccccn23)cc1Br` [Br/Br/H/C2H5/n-C4H9/3, 1-Bromo-2-ethyl-3-[4-(3-di-n-butylaminopropyl)-oxy-3-bromo-benzoyl]-indolizine], the Anti-α effect result in series [2] (dose 10 mg/kg i.v.) was “+++”. For the same compound, the Anti-β effect result in series [3] (dose 10 mg/kg i.v.) is “+++”. In addition, the change in vivo at 10 mg/kg in series [4] (setting [6]) stood at 60%. In series [4] (dose 10 mg/kg i.v.), the “Time required to decrease to 50% (duration of effect)” value came out at 90 min.

The inhibition in vivo is the change of the read-out against control, counted positive when it falls. Read a high inhibition in vivo as a response far below the control. Turning to `CCCCN(CCCC)CCCOc1c(C)cc(C(=O)c2c(C)c(Br)c3ccccn23)cc1C` [Br/CH3/CH3/CH3/n-C4H9/3, 1-Bromo-2-methyl-3-[4-(3-di-n-butylaminopropyl)-oxy-3,5-dimethyl-benzoyl]-indolizine], the Anti-α effect result in series [2] (dose 10 mg/kg i.v.) was “+++”. The ED50 with ventricular fibrillation is less than 100 mg/kg. Also, the inhibition in vivo at 10 mg/kg in series [3] (setting [7]) is more than 50%.

Compound `CCCCN(CCCC)CCCOc1ccc(C(=O)c2c(-c3ccc(Cl)cc3)c(Br)c3ccccn23)cc1Cl` [Br/Cl/H/drawing 50/n-C4H9/3] came in with an LD0 in the series with rats of more than 100 mg/kg. Further, in series [1], the LD50 was more than 100 mg/kg.

`CCCCN(CCCC)CCCOc1ccc(C(=O)c2c(CCC)c(Br)c3ccccn23)cc1Cl` [Br/Cl/H/n-C3H7/n-C4H9/3, 1-Bromo-2-n-propyl-3-[4-(3-di-n-butylaminopropyl)-oxy-3-chloro-benzoyl]-indolizine]: the Anti-α effect entry in series [2] (dose 10 mg/kg i.v.) was “+++”. Besides, the Anti-β effect entry in series [3] (dose 10 mg/kg i.v.) is reported as “+++”. Further, the change in vivo at 2.5 mg/kg in series [4] (Canis lupus familiaris, iv, dose 2.5 mg/kg i.v., read-out: Max. increase (blood-flow to the myocardium)) came out at 50%. The “Time required to decrease to 50% (duration of effect)” value in series [4] (dose 2.5 mg/kg i.v.) worked out at 60 min.

Turning to `CCCCc1c(Br)c2ccccn2c1C(=O)c1ccc(OCCCN(CCC)CCC)c(Cl)c1` [Br/Cl/H/n-C4H9/n-C3H7/3, 1-Bromo-2-n-butyl-3-[4-(3-di-n-propylaminopropyl)-oxy-3-chloro-benzoyl]-indolizine], the inhibition in vivo at 10 mg/kg in series [2] (setting [7]) was more than 50%; in series [3] (setting [7]), less than 50%. For the same compound, the change in vivo at 10 mg/kg in series [4] (setting [6]) was found to be 40%. Further, in series [4] (dose 10 mg/kg i.v.), the “Time required to decrease to 50% (duration of effect)” value came out at 90 min.

Regarding `CCCCc1c(C)c2ccccn2c1C(=O)c1ccc(OCCCN(CCC)CCC)c(Br)c1` [CH3/Br/H/n-C4H9/n-C3H7/3, 1-Methyl-2-n-butyl-3-[4-(3-di-n-propylaminopropyl)-oxy-3-bromo-benzoyl]-indolizine], in series [5], the LD50 turned out to be 50 mg/kg.

Regarding `CCCN(CCC)CCCOc1ccc(C(=O)c2c(CC)c(Cl)c3ccccn23)cc1Cl` [Cl/Cl/H/C2H5/n-C3H7/3, 1-Chloro-2-ethyl-3-[4-(3-di-n-propylaminopropyl)-oxy-3-chloro-benzoyl]-indolizine], the Anti-α effect result in series [2] (dose 3.3 mg/kg i.v.) is reported as “+++”. The Anti-β effect entry in series [3] (dose 3.3 mg/kg i.v.) is recorded as “+++”. Besides, the change in vivo at 3.3 mg/kg in series [4] (Canis lupus familiaris, iv, dose 3.3 mg/kg i.v., read-out: Max. increase (blood-flow to the myocardium)) worked out at 60%. The “Time required to decrease to 50% (duration of effect)” value in series [4] (dose 3.3 mg/kg i.v.) was found to be 25 min.

Consider `CCCCN(CCCC)CCCOc1ccc(C(=O)c2c(CC)c(Cl)c3ccccn23)cc1Cl` [Cl/Cl/H/C2H5/n-C4H9/3, 1-Chloro-2-ethyl-3-[4-(3-di-n-butylaminopropyl)-oxy-3-chloro-benzoyl]-indolizine], for which the LD50 in series [1] was 50 mg/kg. Besides, the Anti-α effect entry in series [2] (dose 0.5 mg/kg i.v.) was “+++”. In addition, the inhibition in vivo at 0.5 mg/kg in series [3] (Canis lupus familiaris, iv, dose 0.5 mg/kg i.v.) was less than 50%. The change in vivo at 1 mg/kg in series [4] (Canis lupus familiaris, iv, dose 1 mg/kg i.v., read-out: Max. increase (blood-flow to the myocardium)) amounted to 40%. Also, the “Time required to decrease to 50% (duration of effect)” value in series [4] (dose 1 mg/kg i.v.) was found to be 15 min.

Turning to `CCCCc1c(Cl)c2ccccn2c1C(=O)c1ccc(OCCCN(CCCC)CCCC)cc1` [Cl/H/H/n-C4H9/n-C4H9/3, 1-Chloro-2-n-butyl-3-[4-(3-di-n-butylaminopropyl)-oxy-benzoyl]-indolizine], the LD50 in series [1] was found to be 50 mg/kg. In series [2] (dose 10 mg/kg i.v.), the Anti-α effect entry is recorded as “+++”. This compound yielded an inhibition in vivo at 10 mg/kg in series [3] (setting [7]) of more than 50%. Also, in series [4] (setting [6]), the change in vivo at 10 mg/kg was 60%. Also, the “Time required to decrease to 50% (duration of effect)” value in series [4] (dose 10 mg/kg i.v.) was determined as 30 min.

Regarding `CCCCc1cc2ccccn2c1C(=O)c1ccc(OCCCN(CCCC)CCCC)c(Br)c1` [H/Br/H/n-C4H9/n-C4H9/3, 2-n-Butyl-3-[4-(3-di-n-butylaminopropyl)-oxy-3-bromo-benzoyl]-indolizine], the LD50 in series [1] came out at 60 mg/kg. Moreover, the Anti-α effect result in series [2] (dose 5 mg/kg i.v.) and in series [2] (dose 10 mg/kg i.v.) was “+++” each time. Moreover, in the series with ventricular fibrillation, the ED50 is 170 mg/kg. In series [3] (Canis lupus familiaris, iv), this compound registered an inhibition in vivo at 5 mg/kg of more than 50%. In addition, the Anti-β effect entry in series [3] (dose 10 mg/kg i.v.) is reported as “+++”. The change in vivo at 5 mg/kg in series [4] (setting [8]) came to 70%. Besides, the “Time required to decrease to 50% (duration of effect)” value in series [4] (dose 5 mg/kg i.v.) turned out to be 60 min.

`CCCCc1cc2ccccn2c1C(=O)c1ccc(OCCCN(CCC)CCC)c(C)c1` [H/CH3/H/n-C4H9/n-C3H7/3, 2-n-Butyl-3-[4-(3-di-n-propylaminopropyl)-oxy-3-methyl-benzoyl]-indolizine]: the LD50 in series [5] is more than 50 mg/kg. For the same compound, the inhibition in vivo at 5 mg/kg in series [2] (Canis lupus familiaris, iv, dose 5 mg/kg i.v.) is more than 50%; in series [3] (Canis lupus familiaris, iv), less than 50%.

With `CCCCN(CCCC)CCCOc1c(Cl)cc(C(=O)c2c(C(C)C)cc3ccccn23)cc1Cl` [H/Cl/Cl/iso-C3H7/n-C4H9/3, 2-Isopropyl-3-[4-(3-di-n-butylaminopropyl)-oxy-3,5-dichloro-benzoyl]-indolizine], the LD50 in series [1] was more than 100 mg/kg. For the same compound, the inhibition in vivo at 10 mg/kg in series [2] (setting [7]) and in series [3] (setting [7]) was more than 50% in each case. The change in vivo at 10 mg/kg in series [4] (setting [6]) is 30%. In addition, in series [4] (dose 10 mg/kg i.v.), the “Time required to decrease to 50% (duration of effect)” value came to 75 min.

On to `CCCCN(CCCC)CCCOc1ccc(C(=O)c2c(CC)cc3ccccn23)cc1Cl` [H/Cl/H/C2H5/n-C4H9/3, 2-Ethyl-3-[4-(3-di-n-butylaminopropyl)-oxy-3-chloro-benzoyl]-indolizine], for which the Anti-α effect entry in series [2] (dose 6 mg/kg i.v.) is given as “+++”. The inhibition in vivo at 6 mg/kg in series [3] (Canis lupus familiaris, iv, dose 6 mg/kg i.v.) is more than 50%. Besides, the change in vivo at 6 mg/kg in series [4] (Canis lupus familiaris, iv, dose 6 mg/kg i.v., read-out: Max. increase (blood-flow to the myocardium)) worked out at 70%. Further, the “Time required to decrease to 50% (duration of effect)” value in series [4] (dose 6 mg/kg i.v.) was found to be 45 min.

Take `CCCN(CCC)CCCOc1ccc(C(=O)c2c(C(C)C)cc3ccccn23)cc1Cl` [H/Cl/H/iso-C3H7/n-C3H7/3, 2-Isopropyl-3-[4-(3-di-n-propylaminopropyl)-oxy-3-chloro-benzoyl]-indolizine]: the inhibition in vivo at 10 mg/kg in series [2] (setting [7]) and in series [3] (setting [7]) was more than 50% each time. The change in vivo at 5 mg/kg in series [4] (setting [8]) stood at 80%. Moreover, the “Time required to decrease to 50% (duration of effect)” value in series [4] (dose 5 mg/kg i.v.) was 90 min.

For `CCCCc1cc2ccccn2c1C(=O)c1ccc(OCCCN(CCCC)CCCC)c(Cl)c1` [H/Cl/H/n-C4H9/n-C4H9/3, 2-n-Butyl-3-[4-(3-di-n-butylaminopropyl)-oxy-3-chloro-benzoyl]-indolizine], the Anti-α effect result in series [2] (dose 10 mg/kg i.v.) is given as “+++”. In series [3] (setting [7]), this compound returned an inhibition in vivo at 10 mg/kg of more than 50%. Moreover, the change in vivo at 5 mg/kg in series [4] (setting [8]) was determined as 75%. The “Time required to decrease to 50% (duration of effect)” value in series [4] (dose 5 mg/kg i.v.) amounted to 30 min.

For the compound `CCCCN(CCCC)CCCOc1c(C)cc(C(=O)c2c(CC)c(I)c3ccccn23)cc1C` [I/CH3/CH3/C2H5/n-C4H9/3, 1-Iodo-2-ethyl-3-[4-(3-di-n-butylaminopropyl)-oxy-3,5-dimethyl-benzoyl]-indolizine], the Anti-α effect result in series [2] (dose 10 mg/kg i.v.) is “+++”. Further, the ED50 in the series on ventricular fibrillation worked out at 100 mg/kg. Besides, the Anti-β effect entry in series [3] (dose 10 mg/kg i.v.) is “+++”.
